# Assays:
# Test in all cases: Bliss excess, mean over the matrix (fraction); higher = more synergy
# [1] = test system: TK (B-Cell Non-Hodgkin's Lymphoma)
# How it was run: (§1)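 Cell lines in DMEM/F12 or RPMI with 10% FBS were plated in 1536-well plates, held 24 hours at 37°C, 5% CO2, then given two-drug dose matrices for 72 hours (DMSO typically 0.2%). Viability was read by CellTiter-Glo 2.0 luminescence and scaled as inhibition from 0 (vehicle wells) to 1 (blank wells). Combination Emax is the second-highest inhibition in the matrix; Bliss excess is observed combination effect minus expected EA + EB − EA·EB, EA and EB being single-agent effects.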
# [2] = test system: IGROV-1 (Ovarian Carcinoma)
# How it was run: as §1
# [3] = test system: CAL-85-1 (Breast Carcinoma)
# How it was run: as §1
# C32 (Melanoma) = test system: C32 (Melanoma)
# How it was run: as §1
# [4] = test system: COR-L105 (Lung Adenocarcinoma)
# How it was run: as §1
# HT-144 (Melanoma) = test system: HT-144 (Melanoma)
# How it was run: as §1
# [5] = test system: MDA-MB-175-VII (Breast Carcinoma)
# How it was run: as §1
# MG-63 (Osteosarcoma) = test system: MG-63 (Osteosarcoma)
# How it was run: as §1
# [6] = test system: BT-474 (Breast Carcinoma)
# How it was run: as §1
# [7] = test system: NCI-H2023 (Non-Small Cell Lung Carcinoma)
# How it was run: as §1
# [8] = test system: NCI-H2170 (Squamous Cell Lung Carcinoma)
# How it was run: as §1
# [9] = test system: SBC-5 (Small Cell Lung Carcinoma)
# How it was run: as §1
# [10] = test system: RS4-11 (B-Lymphoblastic Leukemia)
# How it was run: as §1
# A375 (Melanoma) = test system: A375 (Melanoma)
# How it was run: as §1
# SK-N-DZ (Neuroblastoma) = test system: SK-N-DZ (Neuroblastoma)
# How it was run: as §1
# [11] = test system: KNS-62 (Squamous Cell Lung Carcinoma)
# How it was run: as §1
# NCI-H2452 (Mesothelioma) = test system: NCI-H2452 (Mesothelioma)
# How it was run: as §1
# [12] = test system: L-363 (Plasma Cell Myeloma)
# How it was run: as §1
# DK-MG (Glioblastoma) = test system: DK-MG (Glioblastoma)
# How it was run: as §1
# [13] = test system: OCI-M1 (Acute Myeloid Leukemia)
# How it was run: as §1
Compound,Bliss excess [1],Bliss excess [2],Bliss excess [3],Bliss excess (C32 (Melanoma)),Bliss excess [4],Bliss excess (HT-144 (Melanoma)),Bliss excess [5],Bliss excess (MG-63 (Osteosarcoma)),Bliss excess [6],Bliss excess [7],Bliss excess [8],Bliss excess [9],Bliss excess [10],Bliss excess (A375 (Melanoma)),Bliss excess (SK-N-DZ (Neuroblastoma)),Bliss excess [11],Bliss excess (NCI-H2452 (Mesothelioma)),Bliss excess [12],Bliss excess (DK-MG (Glioblastoma)),Bliss excess [13]
"Cn1cnc2c(F)c(Nc3ccc(Br)cc3Cl)c(C(=O)NOCCO)cc21 [Selumetinib] + C[C@@H]1COCCN1C2=NC(=NC(=C2)C3(CC3)[S@](=N)(=O)C)C4=C5C=CNC5=NC=C4 [AZD6738] (first compound max 10 µM, 7x7, partner max 10 µM)",0.0005,0.0211,0.0508,0.0236,0.0306,-0.0011,0.029,0.0342,-0.0485,-0.0255,-0.0464,0.0096,-0.0098,0.0189,-0.0083,-0.0278,-0.0476,-0.0207,0.059,0.0217
"CC(=O)Nc1cccc(-n2c(=O)n(C3CC3)c(=O)c3c(Nc4ccc(I)cc4F)n(C)c(=O)c(C)c32)c1 [Trametinib] + Cc1nc(-c2cn3c(n2)-c2ccc(-c4cnn(C(C)(C)C(N)=O)c4)cc2OCC3)n(C(C)C)n1 [Taselisib] (first compound max 1 µM, 7x7, partner max 10 µM)",-0.0052,-0.0339,0.213,0.0958,0.0409,0.0234,0.232,0.0237,0.0002,0.0549,0.029,0.192,0.0927,0.0783,0.0954,0.056,0.101,0.241,0.102,0.0652
"CC1(C)CCC(CN2CCN(c3ccc(C(=O)NS(=O)(=O)c4ccc(NCC5CCOCC5)c([N+](=O)[O-])c4)c(Oc4cnc5[nH]ccc5c4)c3)CC2)=C(c2ccc(Cl)cc2)C1 [Venetoclax] + C1CN(CCC1(C(=O)N[C@@H](CCO)C2=CC=C(C=C2)Cl)N)C3=NC=NC4=C3C=CN4 [Capivasertib] (first compound max 1 µM, 7x7, partner max 3 µM)",-0.0111,-0.0182,-0.031,-0.0483,-0.0664,-0.0575,-0.0175,-0.0862,-0.0376,-0.0449,-0.0434,-0.041,-0.003,-0.0463,-0.0211,-0.0474,-0.0318,0.0096,-0.0193,-0.0441
"CC1(C)CCC(CN2CCN(c3ccc(C(=O)NS(=O)(=O)c4ccc(NCC5CCOCC5)c([N+](=O)[O-])c4)c(Oc4cnc5[nH]ccc5c4)c3)CC2)=C(c2ccc(Cl)cc2)C1 [Venetoclax] + C=CCn1c(=O)c2cnc(Nc3ccc(N4CCN(C)CC4)cc3)nc2n1-c1cccc(C(C)(C)O)n1 [AZD1775] (first compound max 1 µM, partner max 1 µM)",0.0168,-0.0952,-0.0334,0.0075,-0.0095,-0.0314,-0.0111,-0.0048,-0.0668,0.0053,-0.0548,-0.0709,0.0174,-0.0142,0.0353,-0.0106,0.0036,0.0933,-0.0003,-0.0505
"CC1(C)CCC(CN2CCN(c3ccc(C(=O)NS(=O)(=O)c4ccc(NCC5CCOCC5)c([N+](=O)[O-])c4)c(Oc4cnc5[nH]ccc5c4)c3)CC2)=C(c2ccc(Cl)cc2)C1 [Venetoclax] + CCN(CCO)CCCOc1ccc2c(Nc3cc(CC(=O)Nc4cccc(F)c4)[nH]n3)ncnc2c1 [AZD2811] (first compound max 1 µM, 7x7, partner max 1 µM)",0.0051,-0.0091,-0.032,-0.0014,-0.0608,-0.0132,-0.0228,-0.0699,-0.0035,-0.067,-0.0185,0.0161,0.003,-0.0095,0.0269,0.0131,0.0268,0.0141,-0.0784,0.0061
"CC1(C)CCC(CN2CCN(c3ccc(C(=O)NS(=O)(=O)c4ccc(NCC5CCOCC5)c([N+](=O)[O-])c4)c(Oc4cnc5[nH]ccc5c4)c3)CC2)=C(c2ccc(Cl)cc2)C1 [Venetoclax] + CN(C)CCCOc1ccc(-c2ccc3ncc4c(c3c2)n(C2CCOCC2)c(=O)n4C)cn1 [AZD0156] (first compound max 1 µM, 7x7, partner max 1 µM)",-0.0227,-0.0236,-0.0476,-0.015,-0.0408,0.0366,-0.0319,0.0063,-0.0072,-0.058,0.024,0.011,-0.0088,-0.003,0.013,-0.0183,-0.0149,0.0188,-0.0222,-0.0299
"CC1(C)CCC(CN2CCN(c3ccc(C(=O)NS(=O)(=O)c4ccc(NCC5CCOCC5)c([N+](=O)[O-])c4)c(Oc4cnc5[nH]ccc5c4)c3)CC2)=C(c2ccc(Cl)cc2)C1 [Venetoclax] + COc1cc(Nc2ncc3c(n2)-c2ccc(Cl)cc2C(c2c(F)cccc2OC)=NC3)ccc1C(=O)O [Alisertib] (first compound max 1 µM, 7x7, partner max 10 µM)",0.223,-0.0588,-0.007,0.0269,-0.0741,0.0089,-0.0221,-0.0116,-0.0136,-0.0679,-0.0702,0.024,0.0168,0.0294,0.077,-0.0512,0.0053,-0.0115,-0.0012,0.0977
"CC1(C)CCC(CN2CCN(c3ccc(C(=O)NS(=O)(=O)c4ccc(NCC5CCOCC5)c([N+](=O)[O-])c4)c(Oc4cnc5[nH]ccc5c4)c3)CC2)=C(c2ccc(Cl)cc2)C1 [Venetoclax] + C[C@@H]1COCCN1C2=NC(=NC(=C2)C3(CC3)[S@](=N)(=O)C)C4=C5C=CNC5=NC=C4 [AZD6738] (first compound max 1 µM, 7x7, partner max 10 µM)",0.0223,-0.0075,-0.0195,-0.0229,-0.0429,0.0378,-0.0433,-0.0758,-0.0265,-0.0671,-0.0019,-0.0486,0.0104,-0.0308,-0.0396,-0.121,-0.0034,0.0331,-0.0914,-0.0106
"CC1(C)CCC(CN2CCN(c3ccc(C(=O)NS(=O)(=O)c4ccc(NCC5CCOCC5)c([N+](=O)[O-])c4)c(Oc4cnc5[nH]ccc5c4)c3)CC2)=C(c2ccc(Cl)cc2)C1 [Venetoclax] + C[C@@H](Nc1cc(F)cc(F)c1)c1cc(C(=O)N(C)C)cc2c(=O)cc(N3CCOCC3)oc12 [AZD8186] (first compound max 1 µM, 7x7, partner max 3 µM)",-0.0454,0.0084,-0.055,-0.0207,-0.0359,-0.0295,-0.0321,-0.0636,-0.055,-0.0539,-0.0739,-0.022,-0.0083,-0.0326,0.0144,-0.0545,0.0255,-0.001,-0.0425,-0.0158
"CC1(C)CCC(CN2CCN(c3ccc(C(=O)NS(=O)(=O)c4ccc(NCC5CCOCC5)c([N+](=O)[O-])c4)c(Oc4cnc5[nH]ccc5c4)c3)CC2)=C(c2ccc(Cl)cc2)C1 [Venetoclax] + Cc1cc2ncnn2cc1Nc1ncc2c(n1)n(C1CCOCC1)c(=O)n2C [AZD7648] (first compound max 1 µM, 7x7, partner max 10 µM)",0.0006,-0.0589,-0.0251,-0.0219,-0.0512,-0.0798,-0.0444,-0.0405,-0.0622,-0.0513,-0.0109,0.0086,-0.0149,-0.0301,-0.0112,-0.0255,-0.0388,0.0281,-0.0355,-0.0153
"CC1(C)CCC(CN2CCN(c3ccc(C(=O)NS(=O)(=O)c4ccc(NCC5CCOCC5)c([N+](=O)[O-])c4)c(Oc4cnc5[nH]ccc5c4)c3)CC2)=C(c2ccc(Cl)cc2)C1 [Venetoclax] + Cn1cnc2c(F)c(Nc3ccc(Br)cc3Cl)c(C(=O)NOCCO)cc21 [Selumetinib] (first compound max 1 µM, 7x7, partner max 3 µM)",-0.0251,-0.0068,-0.0368,-0.0278,-0.0491,-0.0616,-0.0556,-0.0292,-0.0419,-0.0489,-0.0427,-0.0096,0.0052,-0.0437,-0.0156,-0.047,-0.0501,0.0023,-0.0177,-0.0203

# Source: the supplement of paper PMC11061612
